Data published in patent publication US20170008888A1 (KYORIN PHARMACEUTICAL CO., LTD., priority 2014, published 2017).

How the values were obtained:
ERK5 = biological target: T1, ERK5 (Homo sapiens, UniProt Q13164); experiment: Probe-based (AX9989 acyl phosphate ATP probe) kinase profiling in Jurkat lysate: ERK5; assay type: binding; conditions: for IC50: calculated from percent inhibition of AX9989 labeling and the screening concentration, Jurkat lysate; for inhibition at 1 µM: screening concentration 1.0 μM; for inhibition at 1 µM / inhibition at 0.1 µM: read-out: Kinase inhibition % at indicated screening concentration: ERK5; for inhibition at 0.1 µM: screening concentration 0.1 μM
T1 construct: screened for activity against several kinases in Jurkat cells; endogenous in cells; host or cells: Jurkat cell lysate
T1 sequence (Q13164 whole entry): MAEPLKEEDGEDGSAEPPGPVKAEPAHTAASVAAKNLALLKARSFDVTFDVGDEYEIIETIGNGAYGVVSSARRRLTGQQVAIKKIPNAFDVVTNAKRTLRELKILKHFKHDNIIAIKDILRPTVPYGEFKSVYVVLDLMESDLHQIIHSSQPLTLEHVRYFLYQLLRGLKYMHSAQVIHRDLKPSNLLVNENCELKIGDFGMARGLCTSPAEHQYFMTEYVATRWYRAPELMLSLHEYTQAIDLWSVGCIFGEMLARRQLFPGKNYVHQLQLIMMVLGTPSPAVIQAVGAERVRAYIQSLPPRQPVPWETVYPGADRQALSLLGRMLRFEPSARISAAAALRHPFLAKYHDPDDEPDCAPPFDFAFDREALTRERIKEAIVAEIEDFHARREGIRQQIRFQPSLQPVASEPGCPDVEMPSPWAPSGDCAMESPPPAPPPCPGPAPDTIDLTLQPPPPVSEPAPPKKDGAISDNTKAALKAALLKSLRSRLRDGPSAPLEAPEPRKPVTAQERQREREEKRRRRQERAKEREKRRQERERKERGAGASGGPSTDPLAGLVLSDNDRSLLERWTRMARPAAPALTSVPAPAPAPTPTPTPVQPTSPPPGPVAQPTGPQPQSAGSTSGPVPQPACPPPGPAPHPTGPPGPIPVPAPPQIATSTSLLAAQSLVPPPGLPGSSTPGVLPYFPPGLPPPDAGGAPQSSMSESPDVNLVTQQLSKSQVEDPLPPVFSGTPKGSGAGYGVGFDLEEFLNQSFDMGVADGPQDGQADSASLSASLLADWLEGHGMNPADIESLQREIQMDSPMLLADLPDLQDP
How it was run: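 ERK5 IC50 values came from percent inhibition at the screening concentration, measured as loss of LC/MS signal of probe-labelled active-site peptides. Compound was added for 15 min at room temperature to Jurkat lysate (5 mg/ml, 20 mM MnCl2) before labelling with AX9989 ATP acyl phosphate probe at 5 μM.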

AurB or AurC = experiment: Probe-based (AX9989) kinase profiling in Jurkat lysate: AurB or AurC; assay type: binding
How it was run: (§1)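 Jurkat lysate (50 mM HEPES pH 7.5, 150 mM NaCl, 0.1% Triton X-100, 20 mM MnCl2) pre-incubated 15 min with compound at room temperature, then labeled with 5 μM acyl phosphate ATP probe AX9989. Tryptic probe-labeled peptides streptavidin-captured and quantified by LC/MS; percent inhibition from decreased fragment intensity versus untreated.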

JAK1 = biological target: T2, JAK1 (Homo sapiens, UniProt P23458); experiment: Probe-based (AX9989) kinase profiling in Jurkat lysate: JAK1; assay type: binding; conditions: read-out: Kinase inhibition % at indicated screening concentration: JAK1; for inhibition at 1 µM: screening concentration 1.0 μM; for inhibition at 0.1 µM: screening concentration 0.1 μM
T2 construct: screened for activity against several kinases in Jurkat cells; endogenous in cells; host or cells: Jurkat cell lysate
T2 sequence (P23458 whole entry): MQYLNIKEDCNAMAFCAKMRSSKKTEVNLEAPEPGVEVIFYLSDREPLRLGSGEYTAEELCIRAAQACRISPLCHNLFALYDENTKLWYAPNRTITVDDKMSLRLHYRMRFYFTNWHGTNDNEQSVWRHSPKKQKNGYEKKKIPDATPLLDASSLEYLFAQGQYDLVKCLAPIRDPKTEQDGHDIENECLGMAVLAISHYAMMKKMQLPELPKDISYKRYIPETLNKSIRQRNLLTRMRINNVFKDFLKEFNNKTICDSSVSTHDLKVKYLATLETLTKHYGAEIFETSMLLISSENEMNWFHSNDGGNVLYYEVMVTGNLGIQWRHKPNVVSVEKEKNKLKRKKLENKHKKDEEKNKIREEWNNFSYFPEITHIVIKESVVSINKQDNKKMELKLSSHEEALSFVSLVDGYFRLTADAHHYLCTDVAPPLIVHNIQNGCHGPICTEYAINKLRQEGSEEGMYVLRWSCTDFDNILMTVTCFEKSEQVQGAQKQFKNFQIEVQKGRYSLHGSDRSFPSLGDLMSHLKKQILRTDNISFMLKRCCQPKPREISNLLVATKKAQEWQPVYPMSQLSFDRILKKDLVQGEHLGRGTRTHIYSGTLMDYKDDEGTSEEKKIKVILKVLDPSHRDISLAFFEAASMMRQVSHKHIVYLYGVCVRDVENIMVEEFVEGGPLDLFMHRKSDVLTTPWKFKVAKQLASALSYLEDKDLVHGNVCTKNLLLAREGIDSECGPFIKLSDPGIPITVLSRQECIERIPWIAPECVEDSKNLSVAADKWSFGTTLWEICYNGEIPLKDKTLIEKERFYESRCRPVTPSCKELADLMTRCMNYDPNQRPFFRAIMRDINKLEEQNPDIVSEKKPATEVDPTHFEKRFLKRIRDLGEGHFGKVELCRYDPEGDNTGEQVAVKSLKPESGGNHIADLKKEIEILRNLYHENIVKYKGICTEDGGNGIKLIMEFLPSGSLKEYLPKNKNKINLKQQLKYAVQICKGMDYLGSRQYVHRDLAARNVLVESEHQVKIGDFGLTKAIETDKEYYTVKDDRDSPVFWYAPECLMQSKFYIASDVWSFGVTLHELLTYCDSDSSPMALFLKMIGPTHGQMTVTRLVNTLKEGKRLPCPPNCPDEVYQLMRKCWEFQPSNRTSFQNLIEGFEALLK
How it was run: as §1

AMPKa1 or AMPKa2 = experiment: Probe-based (AX9989) kinase profiling in Jurkat lysate: AMPKa1 or AMPKa2; assay type: binding
How it was run: as §1

TAO2 = biological target: T3, TAO2 (Homo sapiens, UniProt Q9UL54); experiment: Probe-based (AX9989) kinase profiling in Jurkat lysate: TAO2; assay type: binding; conditions: read-out: Kinase inhibition % at indicated screening concentration: TAO2; for inhibition at 1 µM: screening concentration 1.0 μM; for inhibition at 0.1 µM: screening concentration 0.1 μM
T3 construct: screened for activity against several kinases in Jurkat cells; endogenous in cells; host or cells: Jurkat cell lysate
T3 sequence (Q9UL54 1-1235): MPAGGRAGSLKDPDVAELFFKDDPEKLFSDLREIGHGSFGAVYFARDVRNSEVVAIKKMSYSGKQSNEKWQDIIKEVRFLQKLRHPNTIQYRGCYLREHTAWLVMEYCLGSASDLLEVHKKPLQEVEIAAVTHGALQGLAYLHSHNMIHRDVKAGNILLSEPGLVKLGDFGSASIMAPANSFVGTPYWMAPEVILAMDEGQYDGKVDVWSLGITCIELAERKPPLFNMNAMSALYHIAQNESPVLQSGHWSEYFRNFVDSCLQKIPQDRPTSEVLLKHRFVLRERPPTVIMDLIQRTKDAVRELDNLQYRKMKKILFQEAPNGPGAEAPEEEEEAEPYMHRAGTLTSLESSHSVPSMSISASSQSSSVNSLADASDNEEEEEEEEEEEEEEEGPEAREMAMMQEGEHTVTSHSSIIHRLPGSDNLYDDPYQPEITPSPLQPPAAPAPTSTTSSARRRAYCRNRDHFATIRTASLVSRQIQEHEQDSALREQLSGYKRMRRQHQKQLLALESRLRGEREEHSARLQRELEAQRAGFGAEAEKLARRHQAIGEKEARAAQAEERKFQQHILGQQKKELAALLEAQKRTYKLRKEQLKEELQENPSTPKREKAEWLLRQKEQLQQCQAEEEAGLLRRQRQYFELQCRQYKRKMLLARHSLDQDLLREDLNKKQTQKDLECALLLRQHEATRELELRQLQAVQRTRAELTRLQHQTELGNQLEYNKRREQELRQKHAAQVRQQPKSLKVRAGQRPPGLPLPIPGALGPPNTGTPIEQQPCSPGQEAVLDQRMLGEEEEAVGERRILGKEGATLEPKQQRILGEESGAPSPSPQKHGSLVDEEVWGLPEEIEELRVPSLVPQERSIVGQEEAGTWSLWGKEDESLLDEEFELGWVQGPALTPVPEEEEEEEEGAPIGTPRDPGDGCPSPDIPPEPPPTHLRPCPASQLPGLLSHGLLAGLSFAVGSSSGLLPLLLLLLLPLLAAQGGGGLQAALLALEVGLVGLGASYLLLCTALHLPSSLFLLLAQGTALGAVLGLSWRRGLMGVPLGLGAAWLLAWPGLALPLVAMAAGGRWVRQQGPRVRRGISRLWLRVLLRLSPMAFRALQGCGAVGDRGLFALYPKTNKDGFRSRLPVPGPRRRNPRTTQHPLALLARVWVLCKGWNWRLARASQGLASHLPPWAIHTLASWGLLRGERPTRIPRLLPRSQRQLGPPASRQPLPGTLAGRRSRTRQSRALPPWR
How it was run: as §1

human PBMCs = experiment: Human PBMC TNF-α response to endotoxin (ELISA); assay type: cell-based; conditions: 0.1 μg/ml LPS 16 h, read-out: EC50 for the inhibition of the human PBMC TNF-α response to endotoxin, ave. ± S.D.
How it was run: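 PBMCs at 2e6 cells/ml in RPMI 1640 with 10% charcoal-dextran-treated FBS were pre-treated 1 h at 37 °C with compound (4-point 1:5 dilution from 10 μM). Stimulation with 0.1 μg/ml E. coli 0111:B4 LPS for 16 h; TNF-α measured by ELISA (A450) in 25-fold diluted supernatant.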

Row | Compound | IC50 (ERK5) | inhibition at 1 µM (ERK5) | Kinase inhibition % at indicated screening concentration: AurB or AurC (AurB or AurC; screening concentration 1.0 μM) | inhibition at 1 µM (JAK1) | Kinase inhibition % at indicated screening concentration: AMPKa1 or AMPKa2 (AMPKa1 or AMPKa2; screening concentration 1.0 μM) | inhibition at 1 µM (TAO2) | EC50 (human PBMCs) | inhibition at 0.1 µM (ERK5) | Kinase inhibition % at indicated screening concentration: AurB or AurC (AurB or AurC; screening concentration 0.1 μM) | inhibition at 0.1 µM (JAK1) | Kinase inhibition % at indicated screening concentration: AMPKa1 or AMPKa2 (AMPKa1 or AMPKa2; screening concentration 0.1 μM) | inhibition at 0.1 µM (TAO2)
1 | CCOc1cc(C(=O)N2CCCCC2)ccc1Nc1cc2c(cn1)N(C)C(=O)c1ccccc1N2C [Compound 12] | 101 to 500 nM | 75 to 90% | E (E is ≦35%) | ≤ 35% | E (E is ≦35%) | ≤ 35% | 630 nM |  |  |  |  | 
2 | CCOc1cc(C(=O)N2CCC(N3CCCC3)C2)ccc1Nc1cc2c(cn1)N(C)C(=O)c1occc1N2C (stereo not shown) [Compound 15] | ≤ 50 nM |  |  |  |  |  | 490 ± 30 nM | 75 to 90% | E (E is ≦35%) | ≤ 35% | E (E is ≦35%) | ≤ 35%
3 | CCOc1cc(C(=O)N2CC[C@H](O)C2)ccc1Nc1cc2c(cn1)N(C)C(=O)c1occc1N2C [Compound 17] | ≤ 50 nM |  |  |  |  |  | 2230 nM | 75 to 90% | E (E is ≦35%) | ≤ 35% | E (E is ≦35%) | ≤ 35%
4 | C=CCN1CCN(C(=O)c2ccc(Nc3cc4c(cn3)N(C)C(=O)c3ccccc3N4C)c(OCC)c2)CC1 [Compound 21] | ≤ 50 nM |  |  |  |  |  | 1220 nM | 75 to 90% | E (E is ≦35%) | ≤ 35% | E (E is ≦35%) | ≤ 35%
5 | CCOc1cc(C(=O)N2CC[C@@H](N3CCCC3)C2)ccc1Nc1cc2c(cn1)N(C)C(=O)c1ccccc1N2C [Compound 24] | ≤ 50 nM |  |  |  |  |  | 910 nM | > 90% | E (E is ≦35%) | ≤ 35% | E (E is ≦35%) | ≤ 35%
6 | CCOc1cc(C(=O)N2CC[C@@H](N(C)C)C2)ccc1Nc1cc2c(cn1)N(C)C(=O)c1occc1N2C [Compound 25] | ≤ 50 nM |  |  |  |  |  | 1170 ± 70 nM | > 90% | E (E is ≦35%) | ≤ 35% | E (E is ≦35%) | ≤ 35%
7 | CCOc1cc(C(=O)N(C)CCN2CCCC2)ccc1Nc1cc2c(cn1)N(C)C(=O)c1ccccc1N2C [Compound 28] | 50 to 100 nM |  |  |  |  |  | 480 nM | > 90% | E (E is ≦35%) | ≤ 35% | E (E is ≦35%) | ≤ 35%
8 | CCOc1cc(C(=O)N(C)CCn2ccnc2)ccc1Nc1cc2c(cn1)N(C)C(=O)c1ccccc1N2C [Compound 30] | ≤ 50 nM |  |  |  |  |  | 1260 ± 170 nM | 75 to 90% | E (E is ≦35%) | ≤ 35% | E (E is ≦35%) | ≤ 35%
9 | CCOc1cc(C(=O)N2CCNC[C@@H]2C)ccc1Nc1cc2c(cn1)N(C)C(=O)c1ccccc1N2C [Compound 31] | ≤ 50 nM |  |  |  |  |  | 1250 nM | 75 to 90% | E (E is ≦35%) | ≤ 35% | E (E is ≦35%) | ≤ 35%
10 | CCOc1cc(C(=O)N2CCN(CCO)CC2)ccc1Nc1cc2c(cn1)N(C)C(=O)c1ccccc1N2C [Compound 37] | ≤ 50 nM |  |  |  |  |  | 960 nM | 75 to 90% | E (E is ≦35%) | ≤ 35% | E (E is ≦35%) | ≤ 35%
11 | CCOc1cc(C(=O)N2CCN(C3CC3)CC2)ccc1Nc1cc2c(cn1)N(C)C(=O)c1ccccc1N2C [Compound 39] | ≤ 50 nM |  |  |  |  |  | 1770 nM | 50 to 75% | E (E is ≦35%) | ≤ 35% | E (E is ≦35%) | ≤ 35%
12 | CCOc1cc(C(=O)N2CCC(N3CCN(C)CC3)CC2)ccc1Nc1cc2c(cn1)N(C)C(=O)c1ncccc1N2C [Compound 40] | ≤ 50 nM | > 90% | E (E is ≦35%) | ≤ 35% | E (E is ≦35%) | ≤ 35% | > 10000 nM |  |  |  |  | 
13 | CCOc1cc(C(=O)N(C)CCN(CC)CC)ccc1Nc1cc2c(cn1)N(C)C(=O)c1ccccc1N2C [Compound 42] | ≤ 50 nM | > 90% | E (E is ≦35%) | ≤ 35% | E (E is ≦35%) | ≤ 35% | 650 nM |  |  |  |  | 
